From publication PMC3340383, “Synthesis and Evaluation of a Series of 2-Substituted-5-Thiopropylpiperazine (Piperidine)-1,3,4-Oxadiazoles Derivatives as Atypical Antipsychotics” (PLoS ONE, 2012)

Experiments:
[1] = molecular target: T1, serotonin 5-HT1A receptor (Rattus norvegicus, UniProt P19327); assay: 5-HT1A binding assay ([3H]8-OH-DPAT, rat brain cortex); details: [3H]8-OH-DPAT, rat brain cortex; mean of three experiments; >10000 marked b: Ki not calculated, inhibition at 10 µM too low; read-out: Ki±SEM, 5HT1A
T1 construct: Rat cerebral cortex was homogenized in 20 volumes of ice-cold Tris-HCl buffer; from tissue; host or cells: rat brain (cerebral) cortex
T1 sequence (P19327 1-422): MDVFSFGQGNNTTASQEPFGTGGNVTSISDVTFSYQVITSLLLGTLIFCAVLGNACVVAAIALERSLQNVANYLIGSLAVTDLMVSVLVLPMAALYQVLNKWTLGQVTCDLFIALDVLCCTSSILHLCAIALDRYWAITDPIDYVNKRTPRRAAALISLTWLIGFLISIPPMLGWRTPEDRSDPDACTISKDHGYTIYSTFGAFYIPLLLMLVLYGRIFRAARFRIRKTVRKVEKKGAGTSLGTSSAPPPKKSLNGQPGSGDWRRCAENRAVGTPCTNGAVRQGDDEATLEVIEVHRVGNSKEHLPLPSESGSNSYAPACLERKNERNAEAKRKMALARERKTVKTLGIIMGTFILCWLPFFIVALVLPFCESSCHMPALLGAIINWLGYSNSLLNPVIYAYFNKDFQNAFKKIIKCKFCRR
Procedure: (§1) All the new compounds were dissolved in 5% DMSO. The following specific radioligands and tissue sources were used: (a) serotonin 5-HT1A receptor, [^3H]8-OH-DPAT, rat brain cortex; (b) serotonin 5-HT2A receptor, [^3H]ketanserin, rat brain cortex; (c) serotonin 5-HT2C receptor, [^3H]mesulergine, rat brain cortex; (d) dopamine D2 receptor, [^3H]spiperone, rat striatum; (e) dopamine D3 receptor, [^3H]spiperone, rat olfactory tubercle (f) histamine H1 receptor, [^3H] pyrilamine, guinea pig cerebellum.
(§2) Total binding was determined in the absence of no-specific binding and compounds. Specific binding was determined in the presence of compounds. Non-specific binding was determined as the difference between total and specific binding.
(§3) Percentage of inhibition (%) = (total binding − specific binding)×100%/(total binding − nonspecific binding).
(§4) Ki values were calculated based on the Cheng and Prussoff equation: Ki = IC50/(1+C/Kd) where C represents the concentration of the hot ligand used and Kd its receptor dissociation constant were calculated for each labeled ligand. Mean Ki values and SEM were reported for at least three independent experiments.
Rat cerebral cortex was homogenized in 20 volumes of ice-cold Tris-HCl buffer (50 mM, pH 7.7) using an ULTRA TURAX homogeniser, and was then centrifuged at 32000 g for 10 min. […] The final pellet was resuspended in Tris-HCl buffer containing 10 µM Pargyline, 4 mM CaCl2 and 0.1% ascorbic acid.
Total binding each assay tube was added 900 µL of the tissue suspension, 50 µL of 0.5 nM [^3H]8-OH-DPAT (187.4 Ci/mmol, Perkin Elmer Life Sciences, Boston, MA, USA), 50 µL Tris-HCl buffer containing 10 µM Pargyline, 4 mM CaCl2 and 0.1% ascorbic acid.
Non-specific binding each assay tube was added 900 µL of the tissue suspension, 50 µL of 0.5 nM [^3H]8-OH-DPAT, 50 µL of 10 µM serotonin.
Specific binding each assay tube was added 900 µL of the tissue suspension, 50 µL of 0.5 nM [^3H]8-OH-DPAT, 50 µL of new compounds or reference drug.
(§5) The incubation was followed by a rapid vacuum filtration through Whatman GF/B glass filters, and the filtrates were washed twice with 5mL cold buffer and transferred to scintillation vials. Scintillation fluid (3.0 mL) was added and the radioactivity bound was measured using a Beckman LS 6500 liquid scintillation counter.

[2] = molecular target: T2, serotonin 5-HT2A receptor (Rattus norvegicus, UniProt P14842); assay: 5-HT2A binding assay ([3H]ketanserin, rat brain cortex); details: [3H]ketanserin, rat brain cortex; mean of three experiments; >10000 marked b: Ki not calculated, inhibition at 10 µM too low; read-out: Ki±SEM, 5HT2A
T2 construct: Rat cerebral cortex was homogenized in 20 volumes of ice-cold Tris-HCl buffer; from tissue; host or cells: rat brain (cerebral) cortex
Procedure: as §1, §2, §3, §4
Rat cerebral cortex was homogenized in 20 volumes of ice-cold Tris-HCl buffer (50 mM, pH 7.7) using an ULTRA TURAX homogeniser, and centrifuged at 32000 g for 20 min. The resulting pellet was resuspended in the same quantity of the buffer centrifuged for 20 min. The final pellet was resuspended in 50 volumes of the Tris-HCl buffer.
Total binding each assay tube was added 900 µL of the tissue suspension, 50 µL of 0.6 nM [^3H]ketanserin (60.0 Ci/mmol, Perkin Elmer Life Sciences, Boston, MA, USA), 50 µL Tris-HCl buffer.
Non-specific binding each assay tube was added 900 µL of the tissue suspension, 50 µL of 0.6 nM [^3H]ketanserin, 50 µL of 10 µM methisergide.
Specific binding each assay tube was added 900 µL of the tissue suspension, 50 µL of 0.6 nM [^3H]ketanserin, […] of new compounds or reference drug.
as §5, with “5 mL” for “5mL”

[3] = molecular target: T3, serotonin 5-HT2C receptor (Rattus norvegicus, UniProt P08909); assay: 5-HT2C binding assay ([3H]mesulergine, rat brain cortex); details: mean of three experiments, read-out: Ki±SEM, 5HT2C
T3 construct: Rat cerebral cortex was homogenized in 20 volumes of ice-cold Tris-HCl buffer; from tissue; host or cells: rat brain (cerebral) cortex
T3 sequence (P08909 33-460): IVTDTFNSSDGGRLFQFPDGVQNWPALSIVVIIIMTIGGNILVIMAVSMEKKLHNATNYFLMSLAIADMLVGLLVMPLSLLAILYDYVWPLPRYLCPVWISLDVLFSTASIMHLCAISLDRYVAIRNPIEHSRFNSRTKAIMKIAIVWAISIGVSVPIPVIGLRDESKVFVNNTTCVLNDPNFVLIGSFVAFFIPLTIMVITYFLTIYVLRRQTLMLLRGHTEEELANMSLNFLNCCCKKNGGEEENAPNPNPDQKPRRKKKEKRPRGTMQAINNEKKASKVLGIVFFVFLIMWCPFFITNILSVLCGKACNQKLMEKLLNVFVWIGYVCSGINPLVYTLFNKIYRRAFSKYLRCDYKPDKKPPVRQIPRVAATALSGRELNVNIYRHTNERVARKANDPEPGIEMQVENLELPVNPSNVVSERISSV
Procedure: as §1
Total binding was determined in the absence of no-specific binding and compounds. Specific binding was determined in the presence of compounds. Non-specific binding was determined as the difference between total and specific binding. […]
Ki values were calculated based on the Cheng and Prussoff equation: Ki = IC50/(1+C/Kd) where C represents the concentration of the hot ligand used and Kd its receptor dissociation constant were calculated for each labeled ligand. […]
The resulting pellet was resuspended in the same quantity of the buffer centrifuged for 20 min. […]
as §5, with “5 mL” for “5mL”

mice = assay: Acute toxicity study; assay type: in vivo; details: oral, survival after 24 h, highest dose 2000 mg/kg
Procedure: The number of surviving animals was recorded after 24 h of drug administration, and the percent mortality in each group was calculated.

[4] = test system: MK-801-induced hyperactivity in mice; assay: MK-801-induced hyperactivity; details: mice, po; 95% confidence limits in parentheses
catalepsy in mice = assay: Catalepsy test (horizontal bar); details: po

T2 sequence (P14842 whole entry): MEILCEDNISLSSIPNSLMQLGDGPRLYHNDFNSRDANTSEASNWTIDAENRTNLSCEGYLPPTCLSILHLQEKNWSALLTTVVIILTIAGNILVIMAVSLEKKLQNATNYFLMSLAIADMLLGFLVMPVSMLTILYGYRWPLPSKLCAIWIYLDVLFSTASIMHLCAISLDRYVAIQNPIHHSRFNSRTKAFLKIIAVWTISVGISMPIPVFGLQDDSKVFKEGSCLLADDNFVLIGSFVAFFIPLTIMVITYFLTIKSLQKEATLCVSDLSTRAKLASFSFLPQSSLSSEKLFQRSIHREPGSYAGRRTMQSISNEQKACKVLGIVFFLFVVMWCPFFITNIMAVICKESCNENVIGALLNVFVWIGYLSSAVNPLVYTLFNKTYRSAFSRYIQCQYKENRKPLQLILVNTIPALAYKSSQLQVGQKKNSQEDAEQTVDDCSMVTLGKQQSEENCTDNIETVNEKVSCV

Fc1ccc2c(C3CCN(CCCSc4nnc(-c5cccc6ccccc56)o4)CC3)noc2c1 [Compound 22, 2-(3-(4-(6-fluorobenzo[d]isoxazol-3-yl)piperidin-1-yl)propylthio)-5-(naphthalen-1-yl)-1,3,4-oxadiazole]
Ki [1]: 4.6 ± 0.8 nM
Ki [2]: 1.1 ± 0.1 nM
Ki [3]: 861 ± 86.2 nM
LD50 (mice): > 2000 mg/kg
MK-801-induced hyperactivity ED50 (B) [4]: 3.58 (2.59–8.28) mg/kg
CAT (catalepsy) ED50 (C) (catalepsy in mice): >300 mg/kg
